In patent US20260364078A1, “PURINE NUCLEOSIDE PHOSPHORYLASE INHIBITORS FOR THE TREATMENT OF METABOLIC SYNDROME AND ASSOCIATED CONDITIONS” (METASHAPE PHARMA AG, priority 2022, published 2026):

Legend:
Type in all cases: in vivo, C57/BL6J mice
[1] = system: fatty acid synthetase (FAS); assay: Example 2: quantitative PCR of lipogenesis marker FAS; details: 2 mg/kg p.o., 3 days a week, 28 days; vs vehicle
Procedure: (§1) Method: C57/BL6J mice were fed obesogenic diet D12492 (60 kcal % fat) from age 6 weeks. Nineteen week old mice (approximately 50 g) were either treated with vehicle (control) or ulodesine hemi glutarate at 2 mg/kg for 3 days a week (days 1, 2 and 3), given orally, over a 28 day period. On day minus 2 and on day 28, animals were fasted for 6 hr (only food withdrawn) and blood was collected for both blood glucose and cholesterol. On day 28 plasma liver enzymes (AST and ALT) and insulin were determined and additional plasma and whole blood was frozen and used for inosine and NAD+ measurement. BAT and iWAT was collected at the end of the study, weighed and quantitative PCR was performed for the lipogenesis markers Stearoyl CoA desaturase 1 (SCD-1) and fatty acid synthetase (FAS) and the thermogenesis marker uncoupling protein 1 (UCP-1). Inosine and NAD+ levels in stored plasma and whole blood respectively were determined by LC/MS/MS.

DIO mouse model = assay: Example 2: low and intermittent dosing in DIO mouse model; details: 2 mg/kg p.o., 3 days a week
Text: The aim of this study is to determine the effect of a low and intermittent dosing regime of ulodesine hemi glutarate on the following parameters: weight gain, food intake, fasting blood glucose concentration, serum insulin, serum cholesterol, plasma liver enzymes aspartate aminotransferase (AST) and alanine transaminase (ALT), inguinal white adipose tissue (iWAT), BAT; inosine in plasma and NAD+ in whole blood, and expression of lipogenesis (fatty acid synthesis) markers in iWAT and thermogenic markers in BAT. The study will assess ulodesine hemi glutarate efficacy on the listed parameters in the DIO mouse model of obesity and metabolic dysfunction.
as §1

[2] = system: Stearoyl CoA desaturase 1 (SCD-1); assay: Example 2: quantitative PCR of lipogenesis marker SCD-1; details: 2 mg/kg p.o., 3 days a week, 28 days; vs vehicle
Procedure: as §1

[3] = system: Diet Induced Obesity (DIO) mouse model; assay: Example 1: low and intermittent dosing in DIO mouse model; details: 2 mg/kg p.o., 3 days a week, 28 days
Text: The aim of the preliminary study is to determine the effect of low and intermittent dosing of ulodesine hemi glutarate on the following parameters: weight gain, food intake, fasting blood glucose concentration and serum cholesterol. The study assesses ulodesine hemi glutarate efficacy on the listed parameters in the DIO mouse model of obesity and metabolic dysfunction.
Method: C57/BL6J mice were fed obesogenic diet D12492 (60 kcal % fat) from age 6 weeks. Eighteen week old mice (approximately 40 g) were either treated with vehicle (control) or ulodesine hemi glutarate at 2 mg/kg for 3 days a week (days 1, 2 and 3) given orally, over a 28 day period. On day −2 and on day 28, animals were fasted for 6 hr by withdrawing food only, and blood was collected for both blood glucose and cholesterol measurements.

lymphocytes = assay: Example 4: total lymphocytes by flow cytometry in DIO mouse model; details: 3 days a week, 4 weeks
Procedure: The aim of this study is to determine the effect of increasing doses of ulodesine hemi glutarate on lymphocytes in whole blood.
Method: C57/BL6J mice were fed obesogenic diet D12492 (60 kcal % fat) from age 6 weeks. Eighteen weeks old mice (approximately 40 g) were either treated with vehicle (control) or ulodesine hemi glutarate at 1, 2, 5, and 10 mg/kg for only 3 days a week (days 1, 2 and 3) given orally for 4 weeks. At the end of four weeks, flow cytometry was used to enumerate total lymphocytes.

[4] = system: uncoupling protein 1 (UCP-1); assay: Example 2: quantitative PCR of thermogenesis marker in BAT; details: 2 mg/kg p.o., 3 days a week, 28 days; vs vehicle
Procedure: as §1

Question: O=c1[nH]cnc2c(CN3C[C@H](CO)[C@@H](O)C3)c[nH]c12 [ulodesine hemi glutarate] was tested. Which “expression of lipogenesis marker FAS in WAT tissue” value [1] did it give?
Answer: The value was “decrease”.

Question: What about the insulin sensitivity (DIO mouse model; 28 days) of the same compound?
Answer: The insulin sensitivity was “improves insulin sensitivity”.

Question: And the “toxicity or adverse effects” value (DIO mouse model; 28 days)?
Answer: The value was “no signs of any toxicity or adverse effects”.

Question: And the “decrease in weight gain” value (DIO mouse model; 28 days, ~50 g mice, vs control)?
Answer: The value was “not significantly different from the control group”.

Question: What about the “NAD+ in whole blood” value (DIO mouse model; day 28, LC/MS/MS) of the same compound?
Answer: Its value is “significantly elevated”.

Question: And the inosine in plasma (DIO mouse model; day 28, LC/MS/MS)?
Answer: The inosine in plasma was “significantly elevated”.

Question: And the “expression of lipogenesis marker SCD-1 in WAT tissue” value [2]?
Answer: The value was “decrease”.

Question: What about the “toxicity or adverse effects” value [3] of the same compound?
Answer: Its value is “no signs of any toxicity or adverse effects”.

Question: What about the fasting blood glucose ([3]; vs control) of the same compound?
Answer: The fasting blood glucose was “decrease in blood glucose”.

Question: And the serum cholesterol ([3]; vs control)?
Answer: The serum cholesterol was “decrease in blood glucose and serum cholesterol”.

Question: And the weight gain ([3]; ~40 g mice, vs control)?
Answer: Its weight gain is “significant decrease in weight gain”.

Question: What about the number of lymphocytes (lymphocytes; 1 mg/kg p.o.) of the same compound?
Answer: The number of lymphocytes was “does not impact the number of lymphocytes”.

Question: And the number of lymphocytes (lymphocytes; 2 mg/kg p.o.)?
Answer: Its number of lymphocytes is “does not impact the number of lymphocytes”.

Question: What about the number of lymphocytes (lymphocytes; 5 mg/kg p.o.) of the same compound?
Answer: The number of lymphocytes was “not significant at doses of 5 mg and 10 mg/kg, there appeared to be an observable decrease in lymphocytes”.

Question: And the number of lymphocytes (lymphocytes; 10 mg/kg p.o.)?
Answer: The number of lymphocytes was “not significant at doses of 5 mg and 10 mg/kg, there appeared to be an observable decrease in lymphocytes”.

Question: And the “expression of thermogenic marker UCP-1 in BAT tissue” value [4]?
Answer: The value was “increase in expression”.
